In publication PMC8838197, “Coumarin-Resveratrol-Inspired Hybrids as Monoamine Oxidase B Inhibitors: 3-Phenylcoumarin versus trans-6-Styrylcoumarin” (Molecules, 2022):
Where “and” joins values, the source holds several entries; their conditions need not be identical. Equal values may be shown once. Read-outs that look alike come from different tables or passages of the source.

Assays:
[1] = system: MAO-A; conditions: cited from earlier work; for pIC50 MAO-A: Table S8; for MAO-A pIC50: data set compounds
[2] = system: MAO-B; design: pIC50 MAO-B: unit not given here; conditions: cited from earlier work
[3] = target: T1, hMAO-A (Homo sapiens, UniProt P21397); experiment: hMAO-A inhibition, Amplex Red MAO assay, recombinant enzyme
T1 sequence (P21397 1-527): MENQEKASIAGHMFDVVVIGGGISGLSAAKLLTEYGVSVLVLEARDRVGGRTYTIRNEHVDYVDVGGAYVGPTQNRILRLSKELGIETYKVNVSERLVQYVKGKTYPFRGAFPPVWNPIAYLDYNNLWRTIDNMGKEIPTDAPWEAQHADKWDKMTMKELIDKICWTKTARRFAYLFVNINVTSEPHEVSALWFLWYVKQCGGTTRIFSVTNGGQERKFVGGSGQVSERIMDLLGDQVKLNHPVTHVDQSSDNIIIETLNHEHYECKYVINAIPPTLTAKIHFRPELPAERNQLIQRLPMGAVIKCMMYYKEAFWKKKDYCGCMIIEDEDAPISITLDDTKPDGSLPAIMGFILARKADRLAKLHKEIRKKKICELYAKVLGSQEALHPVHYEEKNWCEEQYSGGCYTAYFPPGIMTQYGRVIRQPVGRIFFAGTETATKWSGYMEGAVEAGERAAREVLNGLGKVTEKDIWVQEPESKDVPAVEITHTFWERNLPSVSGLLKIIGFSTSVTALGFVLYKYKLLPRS

[4] = target: T2, hMAO-B (Homo sapiens, UniProt P27338); experiment: hMAO-B inhibition, Amplex Red MAO assay, recombinant enzyme
T2 sequence (P27338 1-520): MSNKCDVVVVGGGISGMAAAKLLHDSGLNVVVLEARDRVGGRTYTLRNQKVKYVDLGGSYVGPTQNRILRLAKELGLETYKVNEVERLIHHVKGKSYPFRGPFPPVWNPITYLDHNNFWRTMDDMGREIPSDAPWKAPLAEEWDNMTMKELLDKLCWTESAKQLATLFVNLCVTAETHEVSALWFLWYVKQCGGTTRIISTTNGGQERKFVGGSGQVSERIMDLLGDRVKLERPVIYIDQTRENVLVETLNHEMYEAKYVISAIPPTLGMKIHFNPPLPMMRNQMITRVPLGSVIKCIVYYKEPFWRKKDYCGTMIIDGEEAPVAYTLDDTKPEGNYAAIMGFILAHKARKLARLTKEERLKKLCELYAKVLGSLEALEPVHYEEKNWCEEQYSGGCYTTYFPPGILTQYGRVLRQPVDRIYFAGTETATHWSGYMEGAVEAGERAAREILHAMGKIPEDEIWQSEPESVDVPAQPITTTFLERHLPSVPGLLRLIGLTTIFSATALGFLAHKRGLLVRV

Compound	pIC50 MAO-A [1]	pIC50 MAO-B ([2]; Table S8)	further results
Cc1ccc2oc(=O)c(-c3ccc([N+](=O)[O-])cc3)cc2c1 [Compound 88]	5.379	8.678	–
O=C(O)COc1ccc2oc(=O)c(-c3ccc(Br)cc3)cc2c1 [Compound 73]	4.898	8.154	MAO-A pIC50 [1]: < 5.0; MAO-B pIC50 ([2]; data set compounds): > 6.5
Cc1ccc(-c2cc3cc(O)ccc3oc2=O)cc1 [Compound 14]	4.604	7.173	–
O=c1ccc2cc(/C=C/c3ccccc3)ccc2o1 [trans-6-Styrylcoumarin]	–	–	melting point: 134 to 135 °C; IC50 [3]: > 100 µM; IC50 [4]: 0.11 µM; S.I. (hMAO-B selectivity index = IC50 (hMAO-A)/IC50 (hMAO-B)) [4]: >909.09; times more active on MAO-B than the best compound of the resveratrol derivative series of Kong et al. ([4]; comparison with ref 13): 110; times more active on MAO-B than 3-phenylcoumarin ([4]; ratio of IC50): 107; times more active on MAO-B than trans-resveratrol ([4]; ratio of IC50): 267
COc1ccc(-c2cc3cccc(C)c3oc2=O)cc1 [Compound 37]	4.666	8.465	MAO-A pIC50 [1]: < 5.0
Cc1ccc2oc(=O)c(-c3cccc(O)c3)cc2c1 [Compound 23]	4.455	6.187	–
Cc1ccc(C(=O)Nc2cc3cc(C)ccc3oc2=O)cc1 [Compound 41]	4.337	6.77	–
O=c1oc2c(O)c(O)ccc2cc1-c1cc(Br)cs1 [Compound 147]	5.216	4.663	–
Cc1cc(=O)oc2cc(NC(=O)c3ccco3)ccc12 [Compound 163]	4.521	5.3	MAO-A pIC50 [1]: < 5.0
Cc1ccc2oc(=O)c(-c3ccccc3O)cc2c1 [Compound 24]	4.666	6.921	MAO-B pIC50 ([2]; data set compounds): > 6.5 and < 6.5
O=c1oc2ccc(O)cc2cc1-c1ccccc1 [Compound 63]	4.524	5.47	–
CC(=O)Nc1ccc2c(C)cc(=O)oc2c1 [Compound 153]	4.59	–	–
O=c1oc2cc(O)ccc2cc1-c1cc(Br)cs1 [Compound 146]	5.038	6.854	–
CCC(=O)Nc1ccc2c(C)cc(=O)oc2c1 [Compound 154]	4.015	–	–
O=c1oc2ccc3ccccc3c2cc1-c1cccc(O)c1 [Compound 82]	4.591	5.296	Experimental pIC50 (MAO-A inhibitors) ([1]; Table S12): 4.354
COc1ccc(-c2cc3cccc(OC)c3oc2=O)cc1 [Compound 55]	–	–	MAO-A pIC50 [1]: < 5.0
O=c1oc2c(O)cccc2cc1-c1ccsc1 [Compound 142]	4.754	–	–
COc1cc(-c2cc3cc(C)cc(Br)c3oc2=O)cc(OC)c1OC [Compound 11]	4.506	5.311	MAO-A pIC50 [1]: < 5.0
O=c1oc2ccc3ccccc3c2cc1-c1ccc(O)cc1 [Compound 81]	4.626	6.337	–

Compound	pIC50 MAO-A [1]	pIC50 MAO-B ([2]; Table S8)	further results
Cc1cc(=O)oc2cc(NC(=O)CC(C)C)ccc12 [Compound 156]	4.339	6.357	–
O=c1oc2ccc(O)cc2cc1-c1ccc(Br)cc1 [Compound 68]	4.892	7.495	–
Cc1cc(=O)oc2cc(NC(=O)CBr)ccc12 [Compound 158]	4.107	In	MAO-A pIC50 [1]: < 5.0; IC50 MAO-B ([2]; Table S8): In
COc1ccc(-c2c(O)c3ccccc3oc2=O)cc1 [Compound 26]	–	4.157	–
Cc1cccc2cc(-c3ccc(Br)cc3)c(=O)oc12 [Compound 39]	–	7.701	MAO-B pIC50 ([2]; data set compounds): > 6.5
O=c1oc2ccccc2cc1-c1ccccc1 [Compound 40]	–	4.928	–
COc1ccccc1-c1cc2c(ccc3ccccc32)oc1=O [Compound 77]	–	7.385	–
O=c1oc2c(O)cccc2cc1-c1cc(Br)cs1 [Compound 145]	5.207	–	–
CC#CCNc1cc2ccccc2oc1=O [Compound 149]	–	4.922	–
COc1ccc(-c2cc3cc(Br)ccc3oc2=O)cc1 [Compound 53]	–	8.222	–
O=C(Nc1c(O)c2ccccc2oc1=O)c1cccs1 [Compound 95]	–	4.81	–
Cc1cc(=O)oc2cc(NC(=O)C(C)C)ccc12 [Compound 155]	4.611	4.937	–
Cc1cccc(NC(=O)c2cc3cc(C)ccc3oc2=O)c1 [Compound 99]	–	8.124	–
COc1cccc(NC(=O)c2cc3cc(C)ccc3oc2=O)c1 [Compound 102]	–	7.996	–
Cc1ccc2oc(=O)c(C(=O)Nc3ccc(Cl)cc3)cc2c1 [Compound 114]	–	7.955	MAO-B pIC50 ([2]; data set compounds): > 6.5
Cc1ccc2oc(=O)c(C(=O)Nc3cccc(O)c3)cc2c1 [Compound 108]	–	7.343	–
COc1ccc2oc(=O)c(-c3ccc(C)cc3)cc2c1 [Compound 13]	–	8.818	–
COc1ccc(C(=O)Nc2cc3ccccc3oc2=O)cc1 [Compound 44]	–	4.516	–
COc1ccc(-c2c(O)c3cc(C)ccc3oc2=O)cc1 [Compound 27]	–	4.494	–

Compound	pIC50 MAO-A [1]	pIC50 MAO-B ([2]; Table S8)	further results
COc1cc(-c2cc3cc(C)ccc3oc2=O)cc(OC)c1OC [Compound 4]	–	6.794	–
Cc1cc(=O)oc2cc(NC(=O)c3ccc(Cl)cc3)ccc12 [Compound 161]	–	6.509	–
COc1cc(OC)cc(-c2cc3cc(C)ccc3oc2=O)c1 [Compound 3]	–	8.047	–
O=c1oc2ccccc2cc1-c1ccccc1 [3-Phenylcoumarin]	–	–	IC50 [3]: > 100 µM; S.I. (hMAO-B selectivity index = IC50 (hMAO-A)/IC50 (hMAO-B)) [4]: >8.47; pIC50 MAO-B Exp. ([4]; Table 3): 4.928; IC50 ([4]; read-out: IC50 hMAO-B, recombinant hMAO-B expressed in baculovirus-infected BTI insect cells, n = 5): 11.8 µM
Cc1ccc2oc(=O)c(C(=O)Nc3cccc(Br)c3)cc2c1 [Compound 105]	–	8.332	–
COc1ccc2occ(C(=O)Nc3cccc(O)c3)c(=O)c2c1 [Compound 132]	–	6.945	–
COc1ccc(-c2cc3cc(OC)ccc3oc2=O)cc1 [Compound 52]	–	7.143	–
COc1ccc(-c2cc3cc([N+](=O)[O-])ccc3oc2=O)cc1 [Compound 54]	5.932	8.523	–
CC(=O)COc1ccc2oc(=O)c(-c3cccc(Br)c3)cc2c1 [Compound 71]	–	5.83	–
O=c1oc2cc(O)ccc2cc1-c1ccsc1 [Compound 143]	5.118	5.071	–
Cc1cc(=O)oc2cc(NC(=O)CC(C)(C)C)ccc12 [Compound 157]	–	6.602	–
O=c1oc2ccc3ccccc3c2cc1-c1ccccc1O [Compound 83]	–	5.496	–
O=c1oc2ccc(OC3CCCC3)cc2cc1-c1cccc(Br)c1 [Compound 72]	4.354	5.747	MAO-A pIC50 [1]: < 5.0
COc1cccc(-c2cc3cc(C)ccc3oc2=O)c1 [Compound 5, 3-(3′-methoxyphenyl)-6-methylcoumarin]	–	9.096	activity against MAO-B isoform ([2]; data set compounds): picomolar range
COc1ccc(-c2cc3cc(C)cc(Br)c3oc2=O)cc1 [Compound 9]	–	8.491	–
O=c1oc2c(O)c(O)ccc2cc1-c1ccsc1 [Compound 144]	5.879	5.323	–
COc1ccc(-c2cc3c(ccc4ccccc43)oc2=O)cc1 [Compound 75]	–	7.237	–
Cc1ccc2occ(C(=O)Nc3ccccc3)c(=O)c2c1 [Compound 122]	–	7.671	–
